Reference: patent US20230159510A1, “NOVEL PRMT5 INHIBITORS” (AMGEN INC., priority 2020, published 2023)
Where two headings read alike, the source gives them in different places. Blank lines part the entries; values can stand above or below the compound they belong to.

Columns and labels:
[1] = system: HCT116 MTAP null cells; assay: HCT116 proliferation assay, MTAP null cells (CellTiter-Glo, 6 days); format: cell-based; conditions: 144 h, read-out: Protif_ HCT116-MTAP null IC50
How it was run: (§1)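 RPMI 1640/10% FBS; overnight attachment at 37° C, 5% CO2; 8–9-pt 1:3 titration, top 1 or 10 µM; DMSO ctrl; luminescence readout.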

[2] = system: HCT116 WT cells; assay: HCT116 proliferation assay, WT cells (CellTiter-Glo, 6 days); format: cell-based; conditions: Homo sapiens, HCT-116, 144 h, read-out: Prolif_HCT116-WT IC50
How it was run: as §1

[3] = molecular target: PRMT5/MEP50 (Homo sapiens, UniProt O14744); assay: MTase-Glo methyl transferase assay, Method A (Histone H4 peptide, 1 µM MTA, 24 h pre-incubation); format: biochemical; design: made in house; conditions: read-out: PRMT5 MTase Glo Ki (nM, Meth. A)
Chain of PRMT5/MEP50 (O14744 whole entry): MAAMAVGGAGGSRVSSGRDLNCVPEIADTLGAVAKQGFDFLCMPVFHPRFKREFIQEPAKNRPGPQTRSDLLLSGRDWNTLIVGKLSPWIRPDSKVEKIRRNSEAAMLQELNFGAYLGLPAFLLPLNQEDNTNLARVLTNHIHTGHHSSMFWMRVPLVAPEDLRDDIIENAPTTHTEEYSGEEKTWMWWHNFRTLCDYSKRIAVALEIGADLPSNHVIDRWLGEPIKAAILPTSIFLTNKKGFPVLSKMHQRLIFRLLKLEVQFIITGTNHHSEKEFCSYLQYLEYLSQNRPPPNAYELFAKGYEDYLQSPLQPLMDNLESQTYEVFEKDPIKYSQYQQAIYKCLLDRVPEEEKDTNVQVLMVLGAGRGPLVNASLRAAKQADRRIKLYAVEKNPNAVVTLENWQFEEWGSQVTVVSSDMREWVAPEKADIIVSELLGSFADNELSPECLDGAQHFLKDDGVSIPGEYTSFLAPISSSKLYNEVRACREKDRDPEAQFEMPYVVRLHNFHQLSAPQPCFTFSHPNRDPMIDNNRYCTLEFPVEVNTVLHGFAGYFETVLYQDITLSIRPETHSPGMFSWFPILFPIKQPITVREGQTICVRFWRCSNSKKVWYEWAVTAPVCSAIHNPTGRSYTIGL
Chain of PRMT5/MEP50 (Q9BQA1 whole entry partner): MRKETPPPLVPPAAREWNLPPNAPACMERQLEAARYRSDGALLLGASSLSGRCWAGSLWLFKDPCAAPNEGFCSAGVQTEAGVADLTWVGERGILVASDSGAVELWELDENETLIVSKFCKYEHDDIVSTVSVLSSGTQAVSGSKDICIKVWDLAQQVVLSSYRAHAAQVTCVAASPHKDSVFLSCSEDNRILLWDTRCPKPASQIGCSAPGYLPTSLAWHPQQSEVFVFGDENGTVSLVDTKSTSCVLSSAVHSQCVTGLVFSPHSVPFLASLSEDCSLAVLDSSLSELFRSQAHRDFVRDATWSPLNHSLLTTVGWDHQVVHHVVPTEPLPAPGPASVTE
How it was run: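 PRMT5/MEP50 (10 nM) pre-incubated 24 h with compound, 5 µM SAM and 1 µM MTA, then reaction started with 1 µM Histone H4 (1-21) peptide and run 2 h at room temperature in Tris pH 8.0 buffer. SAH formed detected by MTase-Glo luminescence; IC50 and KI from dose-response curves.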

Compound: Cc1cc2cc(C(=O)N(Cc3ccc(C(F)(F)F)cn3)CC(C)C)c(F)cc2nc1N [Example 314, 2-amino-7-fluoro-3-methyl-N-(2-methylpropyl)-N-((5-(trifluoromethyl)-2-pyridinyl)methyl)-6-quinolinecarboxamide]
IC50 [1]: 218 nM
IC50 [2]: 5130 nM
Ki [3]: 0.35 nM

Compound: Cc1cc2cc(C(=O)N(Cc3ccc(C(F)(F)F)cn3)Cc3ncccc3F)ccc2nc1N [Example 320, 2-amino-N-((3-fluoro-2-pyridinyl)methyl)-3-methyl-N-((5-(trifluoromethyl)-2-pyridinyl)methyl)-6-quinolinecarboxamide]
IC50 [1]: 79 nM
IC50 [2]: 3480 nM
Ki [3]: 0.28 nM

Compound: Cc1cc2cc(C(=O)N(Cc3ccc(C(F)(F)F)nc3)Cc3ncccc3F)ccc2nc1N [Example 322, 2-amino-N-((3-fluoro-2-pyridinyl)methyl)-3-methyl-N-((6-(trifluoromethyl)-3-pyridinyl)methyl)-6-quinolinecarboxamide]
IC50 ([1]; HCT116-MTAP null): 385 nM
IC50 [2]: > 10000 nM
Ki [3]: 1.09 nM

Compound: Cc1cc2cc(C(=O)N(Cc3ccc(C(F)F)cn3)CC(C)C)ccc2nc1N [Example 324, 2-amino-N-((5-(difluoromethyl)-2-pyridinyl)methyl)-3-methyl-N-(2-methylpropyl)-6-quinolinecarboxamide]
IC50 ([1]; HCT116-MTAP null): 849 nM
IC50 [2]: > 10000 nM
Ki [3]: 2 nM

Compound: COC(=O)c1ccc(CN(Cc2ncccc2F)C(=O)c2ccc3nc(N)c(C)cc3c2)nc1 [Example 331, methyl 6-((((2-amino-3-methyl-6-quinolinyl)carbonyl)((3-fluoro-2-pyridinyl)methyl)amino)methyl)-3-pyridinecarboxylate]
IC50 ([1]; HCT116-MTAP null): 490 nM
IC50 [2]: > 10000 nM
Ki [3]: 0.13 nM

Compound: C[C@H](c1ncccn1)N(Cc1ccc(C2=CCOCC2)nn1)C(=O)c1ccc2nc(N)c(Cl)cc2c1 [Example 334, 2-amino-3-chloro-N-((6-(3,6-dihydro-2H-pyran-4-yl)-3-pyridazinyl)methyl)-N-((1R)-1-(2-pyrimidinyl)ethyl)-6-quinolinecarboxamide]
IC50 ([1]; HCT116-MTAP null): 434 nM
IC50 [2]: > 10000 nM
Ki [3]: 0.34 nM

Compound: Cc1cc2cc(C(=O)N(Cc3ccncn3)Cc3ccc(C(F)(F)F)cn3)ccc2nc1N [Example 335, 2-amino-3-methyl-N-(4-pyrimidinylmethyl)-N-((5-(trifluoromethyl)-2-pyridinyl)methyl)-6-quinolinecarboxamide]
IC50 ([1]; HCT116-MTAP null): 727 nM
IC50 [2]: > 10000 nM
Ki [3]: 0.73 nM

Compound: Cc1cc2cc(C(=O)N(Cc3ccc(C(F)(F)F)cn3)Cc3cnccn3)ccc2nc1N [Example 336, 2-amino-3-methyl-N-(2-pyrazinylmethyl)-N-((5-(trifluoromethyl)-2-pyridinyl)methyl)-6-quinolinecarboxamide]
IC50 ([1]; HCT116-MTAP null): 400 nM
IC50 [2]: > 10000 nM
Ki [3]: 0.47 nM

Compound: Cc1cnc(CN(Cc2ccc(C(F)(F)F)cn2)C(=O)c2ccc3nc(N)c(C)cc3c2)cn1 [Example 337, 2-amino-3-methyl-N-((5-methyl-2-pyrazinyl)methyl)-N-((5-(trifluoromethyl)-2-pyridinyl)methyl)-6-quinolinecarboxamide]
IC50 ([1]; HCT116-MTAP null): 434 nM
IC50 [2]: > 10000 nM
Ki [3]: 0.39 nM

Compound: Cc1cc2cc(C(=O)N(Cc3ccc(C(F)(F)F)cn3)Cc3ncccn3)ccc2nc1N [Example 338, 2-amino-3-methyl-N-(2-pyrimidinylmethyl)-N-((5-(trifluoromethyl)-2-pyridinyl)methyl)-6-quinolinecarboxamide]
IC50 [1]: 232 nM
IC50 [2]: > 10000 nM
Ki [3]: 0.8 nM

Compound: Cc1cc2cc(C(=O)N(Cc3ccc(Cl)cn3)Cc3ncccn3)ccc2nc1N [Example 340, 2-amino-N-((5-chloro-2-pyridinyl)methyl)-3-methyl-N-(2-pyrimidinylmethyl)-6-quinolinecarboxamide]
IC50 ([1]; HCT116-MTAP null): 505 nM
IC50 [2]: > 10000 nM
Ki [3]: 1.39 nM

Compound: Cc1cc2cc(C(=O)N(Cc3ccc(C(F)(F)F)cn3)Cc3ncc(F)cn3)ccc2nc1N [Example 341, 2-amino-N-((5-fluoro-2-pyrimidinyl)methyl)-3-methyl-N-((5-(trifluoromethyl)-2-pyridinyl)methyl)-6-quinolinecarboxamide]
IC50 ([1]; HCT116-MTAP null): 437 nM
IC50 [2]: > 10000 nM
Ki [3]: 0.52 nM

Compound: Cc1cc2cc(C(=O)N(Cc3ccncc3)Cc3ccc(C(F)(F)F)cn3)ccc2nc1N [Example 342, 2-amino-3-methyl-N-(4-pyridinylmethyl)-N-((5-(trifluoromethyl)-2-pyridinyl)methyl)-6-quinolinecarboxamide]
IC50 ([1]; HCT116-MTAP null): 730 nM
IC50 [2]: > 10000 nM
Ki [3]: 2.72 nM

Results, then the compound that gave them:

IC50 ([1]; HCT116-MTAP null): 181 nM
IC50 [2]: 4340 nM
Ki [3]: 0.25 nM
Compound: Cc1cc2cc(C(=O)N(Cc3ccc(C(F)(F)F)cn3)Cc3cnccn3)c(F)cc2nc1N [Example 315, 2-amino-7-fluoro-3-methyl-N-(2-pyrazinylmethyl)-N-((5-(trifluoromethyl)-2-pyridinyl)methyl)-6-quinolinecarboxamide]

IC50 ([1]; HCT116-MTAP null): 534 nM
IC50 [2]: 10400 nM
Ki [3]: 1.03 nM
Compound: Cc1cc(CN(Cc2ccc(C(F)(F)F)cn2)C(=O)c2cc3cc(C)c(N)nc3cc2F)no1 [Example 316, 2-amino-7-fluoro-3-methyl-N-((5-methyl-1,2-oxazol-3-yl)methyl)-N-((5-(trifluoromethyl)-2-pyridinyl)methyl)-6-quinolinecarboxamide]

IC50 ([1]; HCT116-MTAP null): 612 nM
IC50 [2]: > 10000 nM
Ki [3]: 0.56 nM
Compound: Nc1nc2ccc(C(=O)N(Cc3ccc(C(F)(F)F)cn3)Cc3ncccn3)cc2cc1Br [Example 317, 2-amino-3-bromo-N-(2-pyrimidinylmethyl)-N-((5-(trifluoromethyl)-2-pyridinyl)methyl)-6-quinolinecarboxamide]

IC50 ([1]; HCT116-MTAP null): 952 nM
IC50 [2]: > 10000 nM
Ki [3]: 1.91 nM
Compound: CC(C)CN(Cc1ccc(C(F)(F)F)cn1)C(=O)c1ccc2nc(N)c(Br)cc2c1 [Example 318, 2-amino-3-bromo-N-(2-methylpropyl)-N-((5-(trifluoromethyl)-2-pyridinyl)methyl)-6-quinolinecarboxamide]

IC50 ([1]; HCT116-MTAP null): 288 nM
IC50 [2]: > 10000 nM
Ki [3]: 0.15 nM
Compound: Nc1nc2ncc(C(=O)N(Cc3ccc(C(F)(F)F)cn3)Cc3ncccc3F)cc2cc1Br [Example 321, 7-amino-6-bromo-N-((3-fluoro-2-pyridinyl)methyl)-N-((5-(trifluoromethyl)-2-pyridinyl)methyl)-1,8-naphthyridine-3-carboxamide]

IC50 ([1]; HCT116-MTAP null): 159 nM
IC50 [2]: 5010 nM
Ki [3]: 0.36 nM
Compound: Cc1cc2cc(C(=O)N(Cc3ccc(C(F)(F)F)cn3)[C@@H]3CCCc4ccncc43)ccc2nc1N [Example 323, 2-amino-3-methyl-N-((8R)-5,6,7,8-tetrahydro-8-isoquinolinyl)-N-((5-(trifluoromethyl)-2-pyridinyl)methyl)-6-quinolinecarboxamide]

IC50 ([1]; HCT116-MTAP null): 679 nM
IC50 [2]: 6180 nM
Ki [3]: 2.76 nM
Compound: Cc1cc2cc(C(=O)N(Cc3ccc(C(F)(F)F)cn3)CC3CC3)ccc2nc1N [Example 325, 2-amino-N-(cyclopropylmethyl)-3-methyl-N-((5-(trifluoromethyl)-2-pyridinyl)methyl)-6-quinolinecarboxamide]

IC50 ([1]; HCT116-MTAP null): 125 nM
IC50 [2]: 4320 nM
Ki [3]: 0.16 nM
Compound: Cc1cc2cc(C(=O)N(Cc3ccc(C(F)F)cn3)Cc3ncccc3F)ccc2nc1N [Example 326, 2-amino-N-((5-(difluoromethyl)-2-pyridinyl)methyl)-N-((3-fluoro-2-pyridinyl)methyl)-3-methyl-6-quinolinecarboxamide]

IC50 ([1]; HCT116-MTAP null): 304 nM
IC50 [2]: 8640 nM
Ki [3]: 0.35 nM
Compound: Cc1cc2cc(C(=O)N(Cc3ccc(C#N)cn3)Cc3ncccc3F)ccc2nc1N [Example 327, 2-amino-N-((5-cyano-2-pyridinyl)methyl)-N-((3-fluoro-2-pyridinyl)methyl)-3-methyl-6-quinolinecarboxamide]

IC50 ([1]; HCT116-MTAP null): 178 nM
IC50 [2]: 4640 nM
Ki [3]: 0.41 nM
Compound: Cc1cc2cc(C(=O)N(Cc3ccc(C(F)(F)F)cc3)Cc3ncccc3F)ccc2nc1N [Example 328, 2-amino-N-((3-fluoro-2-pyridinyl)methyl)-3-methyl-N-(4-(trifluoromethyl)benzyl)-6-quinolinecarboxamide]

IC50 ([1]; HCT116-MTAP null): 128 nM
IC50 [2]: 3900 nM
Ki [3]: 0.13 nM
Compound: Cc1cc(C(F)(F)F)ccc1CN(Cc1ncccc1F)C(=O)c1ccc2nc(N)c(C)cc2c1 [Example 329, 2-amino-N-((3-fluoro-2-pyridinyl)methyl)-3-methyl-N-(2-methyl-4-(trifluoromethyl)benzyl)-6-quinolinecarboxamide]

IC50 ([1]; HCT116-MTAP null): 628 nM
IC50 [2]: 8570 nM
Ki [3]: 1.87 nM
Compound: Cc1cc2cc(C(=O)N(Cc3ccc(Cl)cn3)CC(C)C)ccc2nc1N [Example 330, 2-amino-N-((5-chloro-2-pyridinyl)methyl)-3-methyl-N-(2-methylpropyl)-6-quinolinecarboxamide]

IC50 ([1]; HCT116-MTAP null): 479 nM
IC50 [2]: 5140 nM
Ki [3]: 4.87 nM
Compound: Cc1cc2cc(C(=O)N(Cc3ccc(C(F)(F)F)cn3)C3CC3)c(F)cc2nc1N [Example 332, 2-amino-N-cyclopropyl-7-fluoro-3-methyl-N-((5-(trifluoromethyl)-2-pyridinyl)methyl)-6-quinolinecarboxamide]

IC50 ([1]; HCT116-MTAP null): 27 nM
IC50 [2]: 720 nM
Ki [3]: 0.002 nM
Compound: Cc1cc2cc(C(=O)N(Cc3ccc(C4=CCOCC4)nn3)[C@H](C)c3ncccn3)ccc2nc1N [Example 333, 2-amino-N-((6-(3,6-dihydro-2H-pyran-4-yl)-3-pyridazinyl)methyl)-3-methyl-N-((1R)-1-(2-pyrimidinyl)ethyl)-6-quinolinecarboxamide]
